Experimental data reported in ChEMBL document CHEMBL1201862, “PubChem BioAssay data set” (2004).
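Results reflect a 48-hour exposure of cells in 96-well plates to compound at five concentrations. GI50 marks 50% less growth.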 Calls of active or inactive are those of the source. Rule as the data show it: active = GI50 up to about 1.1 µM and inactive = higher.

Experiments:
Experiment in all cases: DTP human tumour cell line panel, 48 h
SF-295 = system: SF-295
LOX IMVI = system: LOX IMVI
NCI-H460 = system: NCI-H460
PC-3 = system: PC-3
SR = system: SR
NCI-H23 = system: NCI-H23
SNB-19 = system: SNB-19
SK-OV-3 = system: SK-OV-3
OVCAR-4 = system: OVCAR-4
CAKI-1 = system: CAKI-1
IGROV-1 = system: IGROV-1
HCT-116 = system: HCT-116
SK-MEL-5 = system: SK-MEL-5
Hs-578T = system: Hs-578T
SW-620 = system: SW-620
DU-145 = system: DU-145
MDA-MB-231 = system: MDA-MB-231
UACC-62 = system: UACC-62
BT-549 = system: BT-549
OVCAR-3 = system: OVCAR-3

Measured: GI50

C=C1CN=C(Nc2ccc(F)cc2F)S1
inactive: SF-295 > 100 µM | LOX IMVI 18.9 µM | NCI-H460 > 100 µM | PC-3 > 100 µM | SR 36.8 µM | NCI-H23 > 100 µM | SNB-19 > 100 µM | SK-OV-3 > 100 µM | OVCAR-4 > 100 µM | CAKI-1 > 100 µM | IGROV-1 > 100 µM | HCT-116 > 100 µM | SK-MEL-5 > 100 µM | Hs-578T > 100 µM | SW-620 > 100 µM | DU-145 > 100 µM | MDA-MB-231 > 100 µM

O=C1NC(=S)NC(=O)C1C(c1ccc(O)cc1)C1C(=O)NC(=S)NC1=O.c1ccncc1
inactive: SF-295 > 100 µM | LOX IMVI > 100 µM | NCI-H460 > 100 µM | UACC-62 > 100 µM | PC-3 > 100 µM | NCI-H23 > 100 µM | SNB-19 > 100 µM | OVCAR-4 > 100 µM | CAKI-1 > 100 µM | IGROV-1 > 100 µM | HCT-116 > 100 µM | SK-MEL-5 > 100 µM | BT-549 > 100 µM | SW-620 > 100 µM | OVCAR-3 > 100 µM | DU-145 > 100 µM | MDA-MB-231 > 100 µM

CC(=O)O[C@H]1CC(C)(C)C(=C=C/C(C)=C/C=C/C=C/C=C(C)/C=C2C=C(/C=C/[C@@]34O[C@]3(C)C[C@@H](O)CC4(C)C)C(=O)O/2)[C@](C)(O)C1
inactive: SF-295 13.5 µM | NCI-H460 8.09 µM | UACC-62 7.93 µM | PC-3 4.22 µM | SR 6.76 µM | NCI-H23 5.14 µM | SNB-19 30.6 µM | OVCAR-4 4.75 µM | CAKI-1 30.8 µM | IGROV-1 2.88 µM | HCT-116 5.33 µM | SK-MEL-5 8.43 µM | BT-549 2.51 µM | SW-620 19.6 µM | OVCAR-3 10.1 µM | DU-145 33.2 µM | MDA-MB-231 31.1 µM

CC1(C)COC(c2cccc(C(O)c3ccc(Cl)cc3)c2)=N1 (configuration not stated)
inactive: LOX IMVI 15 µM | NCI-H460 29.4 µM | UACC-62 19 µM | PC-3 16.6 µM | SR 31.3 µM | NCI-H23 23.9 µM | SNB-19 32.6 µM | SK-OV-3 26.4 µM | OVCAR-4 56.8 µM | CAKI-1 42.3 µM | IGROV-1 30.5 µM | HCT-116 18.1 µM | SK-MEL-5 14.4 µM | Hs-578T 23.4 µM | SW-620 28.9 µM | OVCAR-3 20.1 µM | DU-145 58.2 µM | MDA-MB-231 29.9 µM

O=C1NC(=O)C23C(=O)NC(=O)C12C1C=CC3CC1 (configuration not stated)
inactive: SF-295 > 10 µM | LOX IMVI > 10 µM | NCI-H460 > 10 µM | UACC-62 > 10 µM | PC-3 > 10 µM | SR > 10 µM | NCI-H23 > 10 µM | SNB-19 > 10 µM | SK-OV-3 > 10 µM | OVCAR-4 > 10 µM | CAKI-1 > 10 µM | IGROV-1 > 10 µM | HCT-116 > 10 µM | SK-MEL-5 > 10 µM | Hs-578T > 10 µM | SW-620 > 10 µM | OVCAR-3 > 10 µM | DU-145 > 10 µM | MDA-MB-231 > 10 µM

CC(C)c1ccc(/C=C2\CSCC3=C2N=C(S)NC3c2ccc(C(C)C)cc2)cc1 (configuration not stated)
inactive: SF-295 75.9 µM | LOX IMVI 51.6 µM | NCI-H460 > 100 µM | UACC-62 88.3 µM | PC-3 28.9 µM | SR 53.3 µM | NCI-H23 46.5 µM | SNB-19 > 100 µM | SK-OV-3 > 100 µM | OVCAR-4 > 100 µM | CAKI-1 > 100 µM | IGROV-1 > 100 µM | HCT-116 44.9 µM | SK-MEL-5 27.2 µM | BT-549 > 100 µM | SW-620 > 100 µM | OVCAR-3 > 100 µM | DU-145 > 100 µM | MDA-MB-231 > 100 µM

O=C(CSc1nnc(SCC(=O)NN=C2CCCCC2)s1)NN=C1CCCCC1
inactive: SF-295 > 100 µM | LOX IMVI > 100 µM | NCI-H460 > 100 µM | UACC-62 > 100 µM | PC-3 > 100 µM | SR > 100 µM | NCI-H23 > 100 µM | SNB-19 > 100 µM | SK-OV-3 > 100 µM | OVCAR-4 > 100 µM | CAKI-1 > 100 µM | IGROV-1 > 100 µM | HCT-116 > 100 µM | SK-MEL-5 > 100 µM | BT-549 > 100 µM | SW-620 > 100 µM | OVCAR-3 > 100 µM | DU-145 > 100 µM | MDA-MB-231 > 100 µM

Cc1ccc2ccccc2c1CC1S(=O)(=O)OCCOS1(=O)=O
inactive: SF-295 13.1 µM | LOX IMVI 7.94 µM | NCI-H460 9.57 µM | PC-3 11.2 µM | SR 7.64 µM | NCI-H23 16 µM | SNB-19 12.7 µM | OVCAR-4 11.2 µM | CAKI-1 12.1 µM | HCT-116 13.1 µM | SK-MEL-5 12.8 µM | BT-549 11.2 µM | OVCAR-3 6.89 µM | DU-145 11.9 µM | MDA-MB-231 13.6 µM

C[C@@H]1CC[C@@H]2[C@@H](C1)O[C@@H]([C@H](C)OCc1ccccc1)SC2(C)C
inactive: SF-295 17.5 µM | LOX IMVI 18.4 µM | NCI-H460 20.7 µM | UACC-62 36.4 µM | PC-3 31.5 µM | SR 18.2 µM | NCI-H23 31.8 µM | SNB-19 21.3 µM | SK-OV-3 30.5 µM | OVCAR-4 28.3 µM | CAKI-1 34.8 µM | IGROV-1 41.8 µM | HCT-116 14.7 µM | SK-MEL-5 18.1 µM | BT-549 39.4 µM | SW-620 18.9 µM | DU-145 37.3 µM | MDA-MB-231 19.7 µM

C=C(C)C1(Sc2ccc(OC)cc2)CC1
inactive: SF-295 26.9 µM | LOX IMVI 17.3 µM | NCI-H460 31 µM | UACC-62 51.9 µM | PC-3 29.3 µM | SR 14.6 µM | NCI-H23 31.2 µM | SNB-19 45.4 µM | SK-OV-3 30.5 µM | OVCAR-4 34.9 µM | CAKI-1 30.5 µM | IGROV-1 30.5 µM | HCT-116 27.2 µM | SK-MEL-5 14.6 µM | BT-549 17.1 µM | SW-620 17.4 µM | OVCAR-3 14.5 µM | DU-145 57.9 µM | MDA-MB-231 43.4 µM

COc1cnc2cc(C(=O)O)c3ccccc3c2c1
inactive: SF-295 > 100 µM | LOX IMVI > 100 µM | NCI-H460 > 100 µM | UACC-62 > 100 µM | PC-3 > 100 µM | SR > 100 µM | NCI-H23 > 100 µM | SNB-19 > 100 µM | SK-OV-3 > 100 µM | OVCAR-4 > 100 µM | CAKI-1 > 100 µM | IGROV-1 > 100 µM | HCT-116 > 100 µM | SK-MEL-5 > 100 µM | Hs-578T > 100 µM | SW-620 > 100 µM | OVCAR-3 > 100 µM | DU-145 > 100 µM | MDA-MB-231 > 100 µM
